Test results from patent US7700584B2 (Hangzhou Minsheng Pharmaceuticals Co., Ltd., priority 2004, dated 2010).
pIC50: −log10 of the molar value.

How the values were obtained:
[1] = tested on: MCF-7 human mammary adenocarcinoma; assay: In vitro anti-tumor IC50 (MTT), MCF-7; type: cell-based; details: Homo sapiens, MCF7; Table 4; read-out: IC50 (ug/ml) against tumor cell lines, MCF
[2] = tested on: SMMC-7721 human hepatic carcinoma; assay: In vitro inhibition rate to tumor cells (MTT), SMMC-7721; type: cell-based; details: 50 μg/ml
MDCK (dog kidney) cells = assay: Toxicity TC50 of the samples in MDCK cells (influenza screening); details: concentration of 50% toxicity
[3] = tested on: mouse grafted liver cancer H22; assay: Activity against mouse grafted liver cancer H22; type: in vivo, Kunming mice; details: for Tumor weight: X ± SD, n = 10
Summary of the method: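 Male Kunming mice inoculated with liver cancer H22, 10 per group; compounds (10%, 0.4, 0.2 or 0.1 ml/mouse) injected from the day after inoculation on alternate days, 6 doses. Tumours excised the day after last dose; inhibition rate from mean tumour weight versus saline controls; repeated three times.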

[4] = biological target: T1, HIV-1 proteinase (HIV-1 PR) (Human immunodeficiency virus type 1 group M subtype B, UniProt P04585); assay: Screening for in vitro activity against HIV-1 proteinase; type: biochemical
T1 construct: HIV-1 proteinase digests the fluorescent-labeled substrate; purchased
Summary of the method: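 Inhibition was scored from product fluorescence after the enzyme was added to buffer holding the labeled substrate and the test sample. Samples were five serial 5× dilutions in water from a DMSO solution. Indinavir served as the reference control; the enzyme was recombinant HIV-1 PR.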

[5] = H22, first experiment, 10 mg/kg i.v., 6 doses
[6] = H22, first experiment, 20 mg/kg i.v., 6 doses
[7] = H22, first experiment, 40 mg/kg i.v., 6 doses
[8] = H22, second experiment, 10 mg/kg
[9] = H22, second experiment, 20 mg/kg
[10] = H22, second experiment, 40 mg/kg
[11] = H22, third experiment, 10 mg/kg
[12] = H22, third experiment, 20 mg/kg
[13] = H22, third experiment, 40 mg/kg

Question: `C=C1CC2(OS(=O)(=O)[O-])OC3(CC2C(C)C)C(C)CCC13.[Na+]` (stereo not drawn) [Compound 21, Curcumol sodium sulfonate] was tested. Which IC50 [1] did it give?
Answer: The IC50 was 4.99 µg/mL.

Question: What about the “inhibition rate, Results (%) SMMC-7721” value ([2]; Table 1) of the same compound?
Answer: The value was −7.26%.

Question: What about the “inhibition rate, Results (%) SMMC-7721” value ([2]; Table 2 (repeated screening)) of the same compound?
Answer: The value was −1.82%.

Question: And the “inhibition rate, Results (%) SMMC-7721” value ([2]; Table 3 (repeated screening))?
Answer: Its value is −2.93%.

Question: And the TC50 (MDCK (dog kidney) cells)?
Answer: Its TC50 is >1000 µg/mL.

Question: And the “Average weight(g)-after administration” value [3, 5]?
Answer: The value was 22.1 g.

Question: And the “Tumor weight” value [3, 5]?
Answer: Its value is 3.00 ± 0.29 g.

Question: What about the “Average weight(g)-after administration” value [3, 6] of the same compound?
Answer: The value was 22.0 g.

Question: What about the “Tumor weight” value [3, 6] of the same compound?
Answer: Its value is 3.03 ± 0.41 g.

Question: And the “Average weight(g)-after administration” value [3, 7]?
Answer: The value was 22.1 g.

Question: What about the “Inhibition rate (%)” value [3, 7] of the same compound?
Answer: The value was 4.0%.

Question: What about the “Tumor weight” value [3, 7] of the same compound?
Answer: The value was 2.9 ± 0.31 g.

Question: What about the “Average weight(g)-after administration” value [3, 8] of the same compound?
Answer: The value was 22.1 g.

Question: And the “Tumor weight” value [3, 8]?
Answer: The value was 3.03 ± 0.29 g.

Question: What about the “Average weight(g)-after administration” value [3, 9] of the same compound?
Answer: The value was 22.0 g.

Question: And the “Tumor weight” value [3, 9]?
Answer: The value was 3.02 ± 0.41 g.

Question: And the “Average weight(g)-after administration” value [3, 10]?
Answer: Its value is 22.1 g.

Question: And the “Inhibition rate (%)” value [3, 10]?
Answer: The value was 1.0%.

Question: And the “Tumor weight” value [3, 10]?
Answer: The value was 3.0 ± 0.31 g.

Question: And the “Average weight (g)-after administration” value [3, 11]?
Answer: Its value is 22.1 g.

Question: And the “Tumor weight” value [3, 11]?
Answer: The value was 3.02 ± 0.29 g.

Question: What about the “Average weight (g)-after administration” value [3, 12] of the same compound?
Answer: The value was 21.0 g.

Question: And the “Tumor weight” value [3, 12]?
Answer: The value was 3.01 ± 0.41 g.

Question: What about the “Average weight (g)-after administration” value [3, 13] of the same compound?
Answer: Its value is 20.1 g.

Question: What about the “Inhibition rate (%)” value [3, 13] of the same compound?
Answer: The value was 1.0%.

Question: What about the “Tumor weight” value [3, 13] of the same compound?
Answer: The value was 3.0 ± 0.31 g.

Question: And the “inhibitory effect against mouse grafted liver cancer H22 (in words)” value ([3]; three different concentrations (40, 20, 10 mg/kg), i.v.)?
Answer: The value was “little inhibitory effect”.

Question: And the Inhibition rate ([4]; 0.08 μg/ml)?
Answer: The Inhibition rate was 8.74.

Question: What about the Inhibition rate ([4]; 0.40 μg/ml) of the same compound?
Answer: Its Inhibition rate is 14.77.

Question: And the Inhibition rate ([4]; 2.0 μg/ml)?
Answer: The Inhibition rate was 5.86.

Question: And the Inhibition rate ([4]; 10 μg/ml)?
Answer: The Inhibition rate was 10.16.

Question: What about the Inhibition rate ([4]; 50 μg/ml) of the same compound?
Answer: The Inhibition rate was 5.47.

Question: And the pIC50 ([4]; IC50, five 5× serial dilutions from 50 μg/ml)?
Answer: Its pIC50 is < 3.83.
